According to ChEMBL document CHEMBL4004838, “Design and synthesis of novel phenyl -1, 4-beta-carboline-hybrid molecules as potential anticancer agents” (Eur J Med Chem, 2017):

Tests used:
Assay type in all cases: functional
Hs-578T = assay: Growth inhibition of human Hs 578T cells assessed as cell growth at 0.1 uM incubated for 48 hrs by sulforhodamine B assay relative to control; settings: read-out: Activity
NCI-H23 [1] = assay: Growth inhibition of human NCI-H23 cells assessed as cell growth at 100 uM incubated for 48 hrs by sulforhodamine B assay relative to control; settings: NCI-H23, 48 h, read-out: Activity
ACHN = assay: Growth inhibition of human ACHN cells incubated for 48 hrs by sulforhodamine B assay
Malme-3M = assay: Growth inhibition of human MALME-3M cells assessed as cell growth at 100 uM incubated for 48 hrs by sulforhodamine B assay relative to control; settings: read-out: Activity
MOLT-4 = assay: Growth inhibition of human MOLT4 cells assessed as cell growth at 0.1 uM incubated for 48 hrs by sulforhodamine B assay relative to control; settings: MOLT-4, 48 h, read-out: Activity
SK-MEL-5 = assay: Growth inhibition of human SK-MEL-5 cells incubated for 48 hrs by sulforhodamine B assay; settings: SK-MEL-5, 48 h
OVCAR-3 = assay: Growth inhibition of human OVCAR3 cells incubated for 48 hrs by sulforhodamine B assay; settings: OVCAR-3, 48 h
HCC 2998 = assay: Growth inhibition of human HCC2998 cells incubated for 48 hrs by sulforhodamine B assay; settings: HCC 2998, 48 h; for TGI: read-out: pTGI (converted)
HL-60(TB) [2] = assay: Growth inhibition of human HL-60(TB) cells incubated for 48 hrs by sulforhodamine B assay; settings: HL-60, 48 h
SF-295 = assay: Growth inhibition of human SF295 cells assessed as cell growth at 0.1 uM incubated for 48 hrs by sulforhodamine B assay relative to control; settings: SF-295, 48 h, read-out: Activity
HOP-62 = assay: Growth inhibition of human HOP62 cells assessed as cell growth at 100 uM incubated for 48 hrs by sulforhodamine B assay relative to control; settings: HOP-62, 48 h, read-out: Activity
OVCAR-8 = assay: Growth inhibition of human OVCAR8 cells assessed as cell growth at 0.01 uM incubated for 48 hrs by sulforhodamine B assay relative to control; settings: OVCAR-8, 48 h, read-out: Activity
MCF7 [3] = assay: Growth inhibition of human MCF7 cells assessed as cell growth at 1 uM incubated for 48 hrs by sulforhodamine B assay relative to control; settings: MCF7, 48 h, read-out: Activity
EKVX = assay: Growth inhibition of human EKVX cells assessed as cell growth at 1 uM incubated for 48 hrs by sulforhodamine B assay relative to control; settings: read-out: Activity
HL-60(TB) [4] = assay: Growth inhibition of human HL-60(TB) cells assessed as cell growth at 0.01 uM incubated for 48 hrs by sulforhodamine B assay relative to control; settings: HL-60, 48 h, read-out: Activity
SK-OV-3 = assay: Growth inhibition of human SKOV3 cells assessed as cell growth at 100 uM incubated for 48 hrs by sulforhodamine B assay relative to control; settings: SK-OV-3, 48 h, read-out: Activity
T47D = assay: Growth inhibition of human T47D cells incubated for 48 hrs by sulforhodamine B assay
CAKI-1 [5] = assay: Growth inhibition of human Caki1 cells assessed as cell growth at 0.1 uM incubated for 48 hrs by sulforhodamine B assay relative to control; settings: CAKI-1, 48 h, read-out: Activity
NCI-H23 [6] = assay: Growth inhibition of human NCI-H23 cells incubated for 48 hrs by sulforhodamine B assay; settings: NCI-H23, 48 h
SNB-19 = assay: Growth inhibition of human SNB19 cells assessed as cell growth at 0.1 uM incubated for 48 hrs by sulforhodamine B assay relative to control; settings: SNB-19, 48 h, read-out: Activity
A549 = assay: Growth inhibition of human A549/ATCC cells assessed as cell growth at 0.01 uM incubated for 48 hrs by sulforhodamine B assay relative to control; settings: A549, 48 h, read-out: Activity
HCT-15 = assay: Growth inhibition of human HCT15 cells assessed as cell growth at 0.01 uM incubated for 48 hrs by sulforhodamine B assay relative to control; settings: HCT-15, 48 h, read-out: Activity
BT-549 = assay: Growth inhibition of human BT549 cells assessed as cell growth at 0.1 uM incubated for 48 hrs by sulforhodamine B assay relative to control; settings: BT-549, 48 h, read-out: Activity
RXF 393 = assay: Growth inhibition of human RXF393 cells assessed as cell growth at 100 uM incubated for 48 hrs by sulforhodamine B assay relative to control; settings: RXF 393, 48 h, read-out: Activity
MDA-MB-231 = assay: Growth inhibition of human MDA-MB-231 cells assessed as cell growth at 0.01 uM incubated for 48 hrs by sulforhodamine B assay relative to control; settings: MDA-MB-231, 48 h, read-out: Activity
SNB-75 = assay: Growth inhibition of human SNB75 cells assessed as cell growth at 0.1 uM incubated for 48 hrs by sulforhodamine B assay relative to control; settings: SNB-75, 48 h, read-out: Activity
NCI-H522 = assay: Growth inhibition of human NCI-H522 cells assessed as cell growth at 0.01 uM incubated for 48 hrs by sulforhodamine B assay relative to control; settings: NCI-H522, 48 h, read-out: Activity
CAKI-1 [7] = assay: Growth inhibition of human Caki1 cells assessed as cell growth at 0.01 uM incubated for 48 hrs by sulforhodamine B assay relative to control; settings: CAKI-1, 48 h, read-out: Activity
CCRF-CEM = assay: Growth inhibition of human CCRF-CEM cells assessed as cell growth at 0.1 uM incubated for 48 hrs by sulforhodamine B assay relative to control; settings: read-out: Activity
MCF7 [8] = assay: Growth inhibition of human MCF7 cells assessed as cell growth at 0.01 uM incubated for 48 hrs by sulforhodamine B assay relative to control; settings: MCF7, 48 h, read-out: Activity
[9] = read-out: LC50 (the source's name)
[10] = read-out: pLC50 (the source's name) (converted)

## c1ccc2c3c([nH]c2c1)C(c1ccc(C2NCCc4c2[nH]c2ccccc42)cc1)NCC3 (racemic)
Hs-578T
  growth at 0.1 µM: 90%
NCI-H23 [1]
  growth at 100 µM: 86%
ACHN; [9]
  CC50: 4.58 µM
ACHN; read-out: pGI50 (converted)
  GI50: 0.708 µM
ACHN; [10]
  CC50: 4.57 µM
ACHN; read-out: pTGI (converted)
  TGI: 2 µM
Malme-3M
  growth at 100 µM: 83%
MOLT-4
  growth at 0.1 µM: 101%
SK-MEL-5; read-out: GI50
  GI50: 1.7 µM
SK-MEL-5; [9]
  CC50: 5.75 µM
SK-MEL-5; read-out: TGI
  TGI: 3.13 µM
SK-MEL-5; read-out: pGI50 (converted)
  GI50: 1.7 µM
SK-MEL-5; [10]
  CC50: 5.75 µM
SK-MEL-5; read-out: pTGI (converted)
  TGI: 3.16 µM
OVCAR-3; read-out: GI50
  GI50: 1.24 µM
OVCAR-3; [9]
  CC50: 5.43 µM
OVCAR-3; read-out: TGI
  TGI: 2.6 µM
OVCAR-3; read-out: pGI50 (converted)
  GI50: 1.23 µM
OVCAR-3; [10]
  CC50: 5.5 µM
OVCAR-3; read-out: pTGI (converted)
  TGI: 2.57 µM
HCC 2998; read-out: pGI50 (converted)
  GI50: 0.275 µM
HCC 2998
  TGI: 1.29 µM
HL-60(TB) [2]; read-out: GI50
  GI50: 1.13 µM
HL-60(TB) [2]; [9]
  CC50: 6.99 µM
HL-60(TB) [2]; read-out: TGI
  TGI: 2.81 µM
HL-60(TB) [2]; read-out: pGI50 (converted)
  GI50: 1.12 µM
HL-60(TB) [2]; [10]
  CC50: 6.92 µM
HL-60(TB) [2]; read-out: pTGI (converted)
  TGI: 2.82 µM
SF-295
  growth at 0.1 µM: 92%
HOP-62
  growth at 100 µM: 83%
OVCAR-8
  growth at 0.01 µM: 101%
MCF7 [3]
  growth at 1 µM: 22%
EKVX
  growth at 1 µM: 70%
HL-60(TB) [4]
  growth at 0.01 µM: 109%
SK-OV-3
  growth at 100 µM: -96%
T47D; read-out: GI50
  GI50: 1.31 µM
T47D; [9]
  CC50: 7.13 µM
T47D; read-out: TGI
  TGI: 3.06 µM
T47D; read-out: pGI50 (converted)
  GI50: 1.32 µM
T47D; [10]
  CC50: 7.08 µM
T47D; read-out: pTGI (converted)
  TGI: 3.09 µM
CAKI-1 [5]
  growth at 0.1 µM: 93%
NCI-H23 [6]; read-out: GI50
  GI50: 1.65 µM
NCI-H23 [6]; [9]
  CC50: 6.83 µM
NCI-H23 [6]; read-out: TGI
  TGI: 3.36 µM
NCI-H23 [6]; read-out: pGI50 (converted)
  GI50: 1.66 µM
NCI-H23 [6]; [10]
  CC50: 6.76 µM
NCI-H23 [6]; read-out: pTGI (converted)
  TGI: 3.39 µM
SNB-19
  growth at 0.1 µM: 99%
A549
  growth at 0.01 µM: 104%
HCT-15
  growth at 0.01 µM: 94%
BT-549
  growth at 0.1 µM: 95%
RXF 393
  growth at 100 µM: -81%
MDA-MB-231
  growth at 0.01 µM: 97%
SNB-75
  growth at 0.1 µM: 72%
NCI-H522
  growth at 0.01 µM: 104%
CAKI-1 [7]
  growth at 0.01 µM: 90%
CCRF-CEM
  growth at 0.1 µM: 104%
MCF7 [8]
  growth at 0.01 µM: 88%

## c1ccc2[nH]c(-c3ccc(-c4nccc5c4[nH]c4ccccc45)cc3)nc2c1
Hs-578T
  growth at 0.1 µM: 100%
NCI-H23 [1]
  growth at 100 µM: 54%
ACHN; read-out: GI50
  GI50: 2.05 µM
ACHN; [9]
  CC50: 8.46 µM
ACHN; read-out: TGI
  TGI: 4.17 µM
ACHN; read-out: pGI50 (converted)
  GI50: 2.04 µM
ACHN; [10]
  CC50: 8.51 µM
ACHN; read-out: pTGI (converted)
  TGI: 4.17 µM
Malme-3M
  growth at 100 µM: 72%
MOLT-4
  growth at 0.1 µM: 98%
SK-MEL-5; [9]
  CC50: 4.42 µM
SK-MEL-5; read-out: pGI50 (converted)
  GI50: 3.72 µM
SK-MEL-5; [10]
  CC50: 44.7 µM
SK-MEL-5; read-out: pTGI (converted)
  TGI: 14.5 µM
OVCAR-3; read-out: GI50
  GI50: 1.8 µM
OVCAR-3; [9]
  CC50: 7.36 µM
OVCAR-3; read-out: TGI
  TGI: 3.64 µM
OVCAR-3; read-out: pGI50 (converted)
  GI50: 1.82 µM
OVCAR-3; [10]
  CC50: 7.41 µM
OVCAR-3; read-out: pTGI (converted)
  TGI: 3.63 µM
HCC 2998; read-out: GI50
  GI50: 3.96 µM
HCC 2998; read-out: LC50
  LC50: 5.31 µM
HCC 2998; read-out: pGI50 (converted)
  GI50: 3.98 µM
HCC 2998; read-out: pLC50 (converted)
  LC50: 53.7 µM
HCC 2998
  TGI: 15.8 µM
HL-60(TB) [2]; read-out: GI50
  GI50: 2.03 µM
HL-60(TB) [2]; [9]
  CC50: > 1 µM
HL-60(TB) [2]; read-out: TGI
  TGI: 4.59 µM
HL-60(TB) [2]; read-out: pGI50 (converted)
  GI50: 2.04 µM
HL-60(TB) [2]; [10]
  CC50: > 100 µM
HL-60(TB) [2]; read-out: pTGI (converted)
  TGI: 4.57 µM
SF-295
  growth at 0.1 µM: 97%
HOP-62
  growth at 100 µM: 70%
OVCAR-8
  growth at 0.01 µM: 100%
MCF7 [3]
  growth at 1 µM: 91%
EKVX
  growth at 1 µM: 93%
HL-60(TB) [4]
  growth at 0.01 µM: 95%
SK-OV-3
  growth at 100 µM: 86%
T47D; read-out: GI50
  GI50: 2.02 µM
T47D; [9]
  CC50: 8.34 µM
T47D; read-out: TGI
  TGI: 6.19 µM
T47D; read-out: pGI50 (converted)
  GI50: 2.04 µM
T47D; [10]
  CC50: 83.2 µM
T47D; read-out: pTGI (converted)
  TGI: 6.17 µM
CAKI-1 [5]
  growth at 0.1 µM: 96%
NCI-H23 [6]; [9]
  CC50: 8.7 µM
NCI-H23 [6]; read-out: pGI50 (converted)
  GI50: 3.47 µM
NCI-H23 [6]; [10]
  CC50: 87.1 µM
NCI-H23 [6]; read-out: pTGI (converted)
  TGI: 17.8 µM
SNB-19
  growth at 0.1 µM: 96%
A549
  growth at 0.01 µM: 98%
HCT-15
  growth at 0.01 µM: 93%
BT-549
  growth at 0.1 µM: 92%
RXF 393
  growth at 100 µM: 68%
MDA-MB-231
  growth at 0.01 µM: 90%
SNB-75
  growth at 0.1 µM: 78%
NCI-H522
  growth at 0.01 µM: 91%
CAKI-1 [7]
  growth at 0.01 µM: 91%
CCRF-CEM
  growth at 0.1 µM: 102%
MCF7 [8]
  growth at 0.01 µM: 91%
